Measured values taken from patent publication US20050260733A1, “Proteases and uses thereof” (WYETH, priority 2004, published 2005).

What follows are substances tested on MAb AGG-C1 (assay: Competitive inhibition ELISA validating the neoepitope specificity of MAb AGG-C1). Conditions: competitor 1.0-1000 nmol/ml, MAb AGG-C1 0.04 μg/ml, FIG. 5.
Type: binding, mouse
Procedure: Streptavidin-coated microtiter plates (Pierce, Rockford, Ill.) were coated with N-terminally biotinylated peptide aggc1 (b-aggc1) by incubating each well with 100 μl of b-aggc1 (100 ng/ml) for 1 h at room temperature. After washing 4 times with phosphate-buffered saline containing 0.01% Tween-20 (PBS-Tween), wells were blocked for 1 h at room temperature with 100 μl of PBS-Tween containing 2% BSA, followed by 4 washes with PBS-Tween.
In order to validate the neoepitope nature of MAb AGG-C1, competition mixtures (100 μl) comprised of MAb AGG-C1 (0.04 μg/ml) and 1.0-1000 nmol/ml of the synthetic peptides GGLPLPRNITEGE (SEQ ID NO:22), GGLPLPRNITEGE ARGSVILTVK-CONH2 (SEQ ID NO:23), undigested aggrecan, or ADAMTS-4 digested aggrecan were preincubated for 1 h at room temperature. Mixtures were then transferred to b-aggc1 coated wells. After a further incubation for 1 h at room temperature, the plates were washed 4 times with PBS-Tween then incubated for 1 h at room temperature with 100 μl of peroxidase-conjugated secondary goat anti-mouse IgG (1:10,000). Following 4 final washes with PBS-Tween, the wells were incubated with TMB 1 component microwell peroxidase substrate (BioFX Laboratories, Owings Mills, Md.). Color development was terminated by the addition of 0.18 M H2SO4, and the absorbance was monitored spectrophotometrically at 450 nm.

Row | Substance | competition for MAb AGG-C1 binding to biotinylated aggc1 peptide
1 | undigested aggrecan: Intact bovine aggrecan, used as ELISA competitor | did not compete
2 | GGPLPRNITEGEARGSVILTVK [Synthetic peptide spanning the aggrecanase cleavage site] | did not compete
3 | ADAMTS4 digested aggrecan: Bovine aggrecan digested with ADAMTS-4, used as ELISA competitor | Dose-dependent competition
4 | GGLPLPRNITEGE (listed as Homo sapiens) [Synthetic peptide whose C-terminus corresponds to E373 of aggrecan core protein] | Dose-dependent competition
